SMILES strings stand for the structures.

For one experiment, the system named is RS4;11-BCL-2 G101V cells. Put plainly: Cell proliferation assay (MTS), RS4;11-BCL-2 G101V engineered cells. In kind it is cell-based. The note with it: Homo sapiens, 120 h, read-out: RS4, 11 BCL2-G101V IC50. The gist of the method:
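Cells were plated, allowed to settle 4 h (G101V, F104L) or 24 h (D103E, D103Y), and treated with serially diluted compound (10000 down to 1.5 nM). After 120 h or 72 h respectively at 37 °C, MTS was added for 2 h and absorbance at 490 nm gave IC50 values.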

A further experiment has as its system RS4;11-BCL-2 D103E cells. Put plainly: Cell proliferation assay (MTS), RS4;11-BCL-2 D103E engineered cells. The format is cell-based. The note with it: Homo sapiens, 72 h, read-out: RS4, 11 BCL2-D103E IC50. An excerpt:
MTS testing kit was purchased from Promega (Madison, WI, USA). The RPMI-1640, Fetal bovine serum and Penicillin-Streptomycin were purchased from BI (Biological Industries, Beit Haemek, Israel). Puromycin was purchased from Beyotime (shanghai, China). Dimethyl sulfoxide (DMSO) was purchased from Sigma (St. Louis., MO, USA). RS4;11-BCL-2 G101V (Cobioer Lot. #: CBD2021063013P4), RS4;11-BCL-2 D103E (Cobioer Lot. #: CBD2021063013P4), RS4;11-BCL-2 D103Y (Cobioer Lot. #: CBD2022012101P4) and RS4;11-BCL-2 F104L (Cobioer Lot. #: CBD2021063014P4) cells were cultured in RPMI1640 supplemented with 1 ug/mL puromycin, 100 U/mL Penicillin-Streptomycin and 10% FBS.
To investigate whether a compound is able to inhibit the activity of BCL-2 mutation in cells, a mechanism-based assay using engineered cell lines stably overexpressing BCL-2 mutation (RS4;11-BCL-2 G101V, RS4;11-BCL-2 D103E, RS4;11-BCL-2 D103Y, and RS4;11-BCL-2 F104L) was developed. In this assay, the inhibition of BCL-2 mutation was reflected by the inhibition of cell proliferation of engineered RS4;11 cells. Cells were plated into 96-well plates at optimized cell density (RS4;11-BCL-2 G101V: 5000 cells/well; RS4;11-BCL-2 D103E: 7500 cells/well; RS4;11-BCL-2 D103Y: 7500 cells/well; RS4;11-BCL-2 F104L: 5000 cells/well). Plates were incubated at 37° C., with 5% CO2 for 4 h (RS4;11-BCL-2 G101V, RS4;11-BCL-2 F104L) and 24 h (RS4;11-BCL-2 D103E, RS4;11-BCL-2 D103Y), respectively. Compounds were serially diluted and added to the plates with the final concentrations of 10000, 3333.3, 1111.1, 370.4, 123.5, 41.2, 13.7, 4.6 and 1.5 nM. Plates were incubated at 37° C., with 5% CO2 for 120 h (RS4; 11-BCL-2 G101V, RS4; 11-BCL-2 F104L) and 72 h (RS4;11-BCL-2 D103E, RS4;11-BCL-2 D103Y), respectively. 20 μl MTS was added into each well and the plates were incubated at 37° C., with 5% CO2 exactly for 2 h. The absorbance was measured by a microplate reader at 490 nm. IC50 values were calculated using GraphPad Prism 8.0 software.

Turning to `COc1cc(CN2CCN(C3CC4(CCN(c5ccc(C(=O)NS(=O)(=O)c6cnc(NC[C@H]7CC[C@](C)(O)CC7)c([N+](=O)[O-])c6)c(Oc6cc7c(F)c[nH]c7nc6OC)c5)CC4)C3)[C@H](c3ccccc3C(C)C)C2)cnc1OC` [Example 123, 4-(2-((R)-4-((5,6-dimethoxypyridin-3-yl)methyl)-2-(2-isopropylphenyl)piperazin-1-yl)-7-azaspiro[3.5]nonan-7-yl)-2-((3-fluoro-6-methoxy-1H-pyrrolo[2,3-b]pyridin-5-yl)oxy)-N-((6-((((1r,4r)-4-hydroxy-4-methylcyclohexyl)methyl)amino)-5-nitropyridin-3-yl)sulfonyl)benzamide], the IC50 with RS4;11-BCL-2 G101V cells and with RS4;11-BCL-2 D103E cells was 1 nM throughout.

Take `[2H]C([2H])([2H])Oc1cc(CN2CCN(C3CC4(CCN(c5ccc(C(=O)NS(=O)(=O)c6cnc(NC[C@H]7CC[C@](C)(O)CC7)c([N+](=O)[O-])c6)c(Oc6cc7c(F)c[nH]c7nc6OC)c5)CC4)C3)[C@H](c3ccccc3C(C)C)C2)ccn1` [Example 164, 2-((3-fluoro-6-methoxy-1H-pyrrolo[2,3-b]pyridin-5-yl)oxy)-N-((6-((((1r,4r)-4-hydroxy-4-methylcyclohexyl)methyl)amino)-5-nitropyridin-3-yl)sulfonyl)-4-(2-((R)-2-(2-isopropylphenyl)-4-((2-(methoxy-d3)pyridin-4-yl)methyl)piperazin-1-yl)-7-azaspiro[3.5]nonan-7-yl)benzamide]: the IC50 with RS4;11-BCL-2 D103E cells stood at 1 nM.

Take `COc1nccc(CN2CCN(C3CC4(CCN(c5ccc(C(=O)NS(=O)(=O)c6cnc(NC[C@H]7CC[C@](C)(O)CC7)c([N+](=O)[O-])c6)c(Oc6cc7c(F)c[nH]c7nc6OC)c5)CC4)C3)[C@H](c3ccccc3C(C)C)C2)n1` [Example 165, 2-((3-fluoro-6-methoxy-1H-pyrrolo[2,3-b]pyridin-5-yl)oxy)-N-((6-((((1r,4r)-4-hydroxy-4-methylcyclohexyl)methyl)amino)-5-nitropyridin-3-yl)sulfonyl)-4-(2-((R)-2-(2-isopropylphenyl)-4-((2-methoxypyrimidin-4-yl)methyl)piperazin-1-yl)-7-azaspiro[3.5]nonan-7-yl)benzamide]: the half-inhibitory concentration (IC50) in the experiment on RS4;11-BCL-2 D103E cells turned out to be 1 nM.

With `CC(C)c1ccccc1[C@@H]1CN(C(C)C)CCN1C1CC2(CCN(c3ccc(C(=O)NS(=O)(=O)c4cnc(NC[C@H]5CC[C@](C)(O)CC5)c([N+](=O)[O-])c4)c(Oc4cnc5[nH]cc(F)c5c4)c3)CC2)C1` [Example 185, 2-((3-fluoro-1H-pyrrolo[2,3-b]pyridin-5-yl)oxy)-N-((6-((((1r,4r)-4-hydroxy-4-methylcyclohexyl)methyl)amino)-5-nitropyridin-3-yl)sulfonyl)-4-(2-((R)-4-isopropyl-2-(2-isopropylphenyl)piperazin-1-yl)-7-azaspiro[3.5]nonan-7-yl)benzamide], the IC50 in the experiment with RS4;11-BCL-2 G101V cells and in the experiment with RS4;11-BCL-2 D103E cells was 1 nM throughout.

With `COc1nc2[nH]cc(F)c2cc1Oc1cc(N2CCC3(CC2)CC(N2CCN(Cc4ccnc5c4OCO5)C[C@H]2c2ccccc2C(C)C)C3)ccc1C(=O)NS(=O)(=O)c1cnc(NC[C@H]2CC[C@](C)(O)CC2)c([N+](=O)[O-])c1` [Example 189, 4-(2-((R)-4-([1,3]dioxolo[4,5-b]pyridin-7-ylmethyl)-2-(2-isopropylphenyl)piperazin-1-yl)-7-azaspiro[3.5]nonan-7-yl)-2-((3-fluoro-6-methoxy-1H-pyrrolo[2,3-b]pyridin-5-yl)oxy)-N-((6-((((1r,4r)-4-hydroxy-4-methylcyclohexyl)methyl)amino)-5-nitropyridin-3-yl)sulfonyl)benzamide], the half-inhibitory concentration (IC50) with RS4;11-BCL-2 D103E cells stood at 1 nM.

With `COc1nc2[nH]cc(F)c2cc1Oc1cc(N2CCC3(CC2)CC(N2CCN(Cc4ccnc5c4OCCO5)C[C@H]2c2ccccc2C(C)C)C3)ccc1C(=O)NS(=O)(=O)c1cnc(NC[C@H]2CC[C@](C)(O)CC2)c([N+](=O)[O-])c1` [Example 191, 4-(2-((R)-4-((2,3-dihydro-[1,4]dioxino[2,3-b]pyridin-8-yl)methyl)-2-(2-isopropylphenyl)piperazin-1-yl)-7-azaspiro[3.5]nonan-7-yl)-2-((3-fluoro-6-methoxy-1H-pyrrolo[2,3-b]pyridin-5-yl)oxy)-N-((6-((((1r,4r)-4-hydroxy-4-methylcyclohexyl)methyl)amino)-5-nitropyridin-3-yl)sulfonyl)benzamide], in the experiment on RS4;11-BCL-2 D103E cells, the IC50 came to 1 nM.

Regarding `COc1nc2[nH]cc(F)c2cc1Oc1cc(N2CCC3(CC2)CC(N2CCN(Cc4ccnc5c4OC(C)CN5)C[C@H]2c2ccccc2C(C)C)C3)ccc1C(=O)NS(=O)(=O)c1cnc(NC[C@H]2CC[C@](C)(O)CC2)c([N+](=O)[O-])c1` (stereo partly drawn) [Example 196, 2-((3-fluoro-6-methoxy-1H-pyrrolo[2,3-b]pyridin-5-yl)oxy)-N-((6-((((1r,4r)-4-hydroxy-4-methylcyclohexyl)methyl)amino)-5-nitropyridin-3-yl)sulfonyl)-4-(2-((2R)-2-(2-isopropylphenyl)-4-((2-methyl-3,4-dihydro-2H-pyrido[3,2-b][1,4]oxazin-8-yl)methyl)piperazin-1-yl)-7-azaspiro[3.5]nonan-7-yl)benzamide], the IC50 in the experiment on RS4;11-BCL-2 D103E cells is 1 nM.

Regarding `COc1nc2[nH]cc(F)c2cc1Oc1cc(N2CCC3(CC2)CC(N2CCN(Cc4ccnc(O)c4)C[C@H]2c2ccccc2C(C)C)C3)ccc1C(=O)NS(=O)(=O)c1cnc(NC[C@H]2CC[C@](C)(O)CC2)c([N+](=O)[O-])c1` [Example 199, 2-((3-fluoro-6-methoxy-1H-pyrrolo[2,3-b]pyridin-5-yl)oxy)-N-((6-((((1r,4r)-4-hydroxy-4-methylcyclohexyl)methyl)amino)-5-nitropyridin-3-yl)sulfonyl)-4-(2-((R)-4-((2-hydroxypyridin-4-yl)methyl)-2-(2-isopropylphenyl)piperazin-1-yl)-7-azaspiro[3.5]nonan-7-yl)benzamide], the 50% inhibitory concentration (IC50) in the experiment with RS4;11-BCL-2 D103E cells is 1 nM.

On to `CCOc1nc2[nH]cc(F)c2cc1Oc1cc(N2CCC3(CC2)CC(N2CCN(Cc4cnc(C5CC5)c(OC)c4)C[C@H]2c2ccccc2C(C)C)C3)ccc1C(=O)NS(=O)(=O)c1cnc(NC[C@H]2CC[C@](C)(O)CC2)c([N+](=O)[O-])c1` [Example 253, 4-(2-((R)-4-((6-cyclopropyl-5-methoxypyridin-3-yl)methyl)-2-(2-isopropylphenyl)piperazin-1-yl)-7-azaspiro[3.5]nonan-7-yl)-2-((6-ethoxy-3-fluoro-1H-pyrrolo[2,3-b]pyridin-5-yl)oxy)-N-((6-((((1r,4r)-4-hydroxy-4-methylcyclohexyl)methyl)amino)-5-nitropyridin-3-yl)sulfonyl)benzamide], for which the concentration for half-maximal inhibition (IC50) with RS4;11-BCL-2 G101V cells amounted to 1 nM; with RS4;11-BCL-2 D103E cells, 3 nM.

For the compound `COc1cc(CN2CCN(C3CC4(CCN(c5ccc(C(=O)NS(=O)(=O)c6cnc(OC[C@H]7CC[C@](C)(O)CC7)c([N+](=O)[O-])c6)c(Oc6cc7c(F)c[nH]c7nc6OC)c5)CC4)C3)[C@H](c3ccccc3C(C)C)C2)ccn1` [Example 261, 2-((3-fluoro-6-methoxy-1H-pyrrolo[2,3-b]pyridin-5-yl)oxy)-N-((6-(((1r,4r)-4-hydroxy-4-methylcyclohexyl)methoxy)-5-nitropyridin-3-yl)sulfonyl)-4-(2-((R)-2-(2-isopropylphenyl)-4-((2-methoxypyridin-4-yl)methyl)piperazin-1-yl)-7-azaspiro [3.5]nonan-7-yl)benzamide], in the experiment with RS4;11-BCL-2 D103E cells, the IC50 amounted to 2 nM.

`COC1CCC(N2CCN(C3CC4(CCN(c5ccc(C(=O)NS(=O)(=O)c6cnc(NC[C@H]7CC[C@](C)(O)CC7)c([N+](=O)[O-])c6)c(Oc6cnc7[nH]cc(F)c7c6)c5)CC4)C3)[C@H](c3ccccc3C(C)C)C2)CC1` (stereo partly drawn) [Example 326, 2-((3-fluoro-1H-pyrrolo[2,3-b]pyridin-5-yl)oxy)-N-((6-((((1r,4r)-4-hydroxy-4-methylcyclohexyl)methyl)amino)-5-nitropyridin-3-yl)sulfonyl)-4-(2-((R)-2-(2-isopropylphenyl)-4-(4-methoxycyclohexyl)piperazin-1-yl)-7-azaspiro[3.5]nonan-7-yl)benzamide]: the half-maximal inhibitory concentration (IC50) with RS4;11-BCL-2 D103E cells came out at 1 nM.

Broadly, the IC50 is the concentration needed to halve the response being measured.

(Values after patent US20250122191A1, “COMPOUNDS AS BCL-2 INHIBITORS” (Fochon Biosciences, Ltd, priority 2021, published 2025).)
